Earlier results in patent US20190374461A1, “Treatment apparatus and mechanisms for an infected nail” (priority 2018, published 2019).
Where “and” joins values, the source holds several entries; their conditions need not be identical. Identical values can stand only once. Counter-ions that a name gives are not always drawn. Like-named read-outs stand apart in the source and are kept apart here.

Tested on: nail infections

For `CC[C@@H]([C@H](C)O)n1ncn(-c2ccc(N3CCN(c4ccc(OC[C@@H]5CO[C@@](Cn6cncn6)(c6ccc(F)cc6F)C5)cc4)CC3)cc2)c1=O` [Posaconazole], the “side effects compared with Lamisil” value (oral treatment) is given as “prone to fewer side effects than Lamisil”.

For `CN(C/C=C/C#CC(C)(C)C)Cc1cccc2ccccc12` [Lamisil, terbinafine hydrochloride], the mycological cure rate (oral treatment of nail infections) is given as 46%.

For `C=C1CCN([C@H](C)[C@](O)(Cn2cncn2)c2ccc(F)cc2F)CC1` [efinaconazole], the cure rates (topical, only mild infections not involving the nail bed) is listed as 17.8% and 15.2%.

For `OB1OCc2cc(F)ccc21` [Tavaborole, tavaborole], the “complete cure, share of patients” value (topical, 600 patients in the study) is listed as 6%.

For `Cc1cc(C2CCCCC2)n(O)c(=O)c1` [Ciclopirox, ciclopirox], the cure rate (topical, 8% strength) is listed as “about 8.5%”.

In the case of `CCC(C)(C)c1ccc(CC(C)CN2C[C@@H](C)O[C@@H](C)C2)cc1` (some centres unmarked) [Amorolfine, amorolfine], the cure rates (topical, mild nail infections without nail matrix involvement) is given as 40 to 55% and the “effectiveness against severe nail infections” value (topical, severe nail infections involving the nail bed) is given as “not effective”.

In the case of `C[C@@H](n1cnc2cc(Cl)ccc2c1=O)[C@](O)(Cn1cncn1)c1ccc(F)cc1F` [Albaconazole], the “side effects compared with Lamisil” value (in vivo, po) is given as “prone to fewer side effects than Lamisil”.
